Measured values as given in patent US20040192771A1, “Ether compounds and compositions for cholesterol management and related uses” (priority 2001, published 2004).
Like-named read-outs stand apart in the source and are kept apart here.

Experiments:
obese female Zucker rats = assay: Oral daily treatment of obese female Zucker rats for fourteen days; serum lipids and glycemic control indicators; type: in vivo; settings: Rattus norvegicus, percent change from study prebleed; for change in vivo at 100 mg/kg/day: 100 mg/kg/day oral; for change in vivo at 30 mg/kg/day: 30 mg/kg/day oral
Protocol: In a number of different experiments, illustrative compounds of the invention are administered daily at a dose of up to 100 mg/kg to chow fed obese female Zucker rats for fourteen days in the morning by oral gavage in 1.5% carboxymethylcellulose/0.2% Tween 20 or 20% ethanol/80% polyethylene glycol (dosing vehicles). Animals are weighed daily. Animals are allowed free access to rodent chow and water throughout the study except on days of blood sampling where food is restricted for six hours prior to blood sampling. Blood glucose is determined after the 6 hour fast in the afternoon without anesthesia from a tail vein. Serum is also prepared from pretreatment blood samples subsequently obtained from the orbital venous plexus (with O2/CO2 anesthesia) and following the fourteenth dose at sacrifice from the heart following O2/CO2 anesthesia. Serums are assayed for lipoprotein cholesterol profiles, triglycerides, total cholesterol, Non HDL cholesterol, HDL cholesterol, the ratio of HDL cholesterol to that of Non HDL cholesterol, insulin, non esterified fatty acids, and beta hydroxy butyric acid. The percent body weight gain and the ratio of liver to body weight is also determined. These are shown as absolute values or as a percent change of the pretreatment values in Table C. [drawing 479] [drawing 480]

primary rat hepatocytes = assay: Inhibition of lipid synthesis ([1-14C]-acetate incorporation) in primary cultures of rat hepatocytes; type: cell-based; settings: Hepatocyte, total lipid synthesis, 4 hours incubation
Protocol: Compounds were tested for inhibition of lipid synthesis in primary cultures of rat hepatocytes. Male Sprague-Dawley rats were anesthetized with intraperitoneal injection of sodium pentobarbital (80 mg/kg). Rat hepatocytes were isolated essentially as described by the method of Seglen (Seglen, P. O. Hepatocyte suspensions and cultures as tools in experimental carcinogenesis. J. Toxicol. Environ. Health 1979, 5, 551-560). Hepatocytes were suspended in Dulbecco's Modified Eagles Medium containing 25 mM D-glucose, 14 mM HEPES, 5 mM L-glutamine, 5 mM leucine, 5 mM alanine, 10 mM lactate, 1 mM pyruvate, 0.2% bovine serum albumin, 17.4 mM non-essential amino acids, 20% fetal bovine serum, 100 nM insulin and 20 μg/mL gentamycin) and plated at a density of 1.5×10^5 cells/cm^2 on collagen-coated 96-well plates. Four hours after plating, media was replaced with the same media without serum. Cells were grown overnight to allow formation of monolayer cultures. Lipid synthesis incubation conditions were initially assessed to ensure the linearity of [1-^14C]-acetate incorporation into hepatocyte lipids for up to 4 hours. Hepatocyte lipid synthesis inhibitory activity was assessed during incubations in the presence of 0.25 μCi [1-^14C]-acetate/well (final radiospecific activity in assay is 1 Ci/mol) and 0, 1, 3, 10, 30, 100 or 300 μM of compounds for 4 hours. At the end of the 4-hour incubation period, medium was discarded and cells were washed twice with ice-cold phosphate buffered saline and stored frozen prior to analysis. To determine total lipid synthesis, 170 μl of MicroScint-E® and 50 μl water was added to each well to extract and partition the lipid soluble products to the upper organic phase containing the scintillant. Lipid radioactivity was assessed by scintillation spectroscopy in a Packard TopCount NXT.

[1] = 168 h, week 1, read-out: Glucose
[2] = 168 h, week 1, read-out: Insulin
[3] = 168 h, week 1, read-out: Non-HDL-C
[4] = 336 h, week 2, read-out: Glucose
[5] = 336 h, week 2, read-out: Insulin
[6] = 336 h, week 2, read-out: Non-HDL-C

Row | SMILES | change in vivo at 100 mg/kg/day (obese female Zucker rats; [1]) | change in vivo at 100 mg/kg/day (obese female Zucker rats; 168 h, week 1, read-out: HDL-C) | change in vivo at 100 mg/kg/day (obese female Zucker rats; [2]) | change in vivo at 100 mg/kg/day (obese female Zucker rats; [3]) | change in vivo at 100 mg/kg/day (obese female Zucker rats; 168 h, week 1, read-out: TC) | change in vivo at 100 mg/kg/day (obese female Zucker rats; 168 h, week 1, read-out: TG) | change in vivo at 100 mg/kg/day (obese female Zucker rats; [4]) | change in vivo at 100 mg/kg/day (obese female Zucker rats; 336 h, week 2, read-out: HDL-C) | change in vivo at 100 mg/kg/day (obese female Zucker rats; [5]) | change in vivo at 100 mg/kg/day (obese female Zucker rats; [6]) | change in vivo at 100 mg/kg/day (obese female Zucker rats; 336 h, week 2, read-out: TC) | change in vivo at 100 mg/kg/day (obese female Zucker rats; 336 h, week 2, read-out: TG) | IC50 (primary rat hepatocytes) | change in vivo at 30 mg/kg/day (obese female Zucker rats; 168 h, week 1, read-out: HDL-C) | change in vivo at 30 mg/kg/day (obese female Zucker rats; [2]) | change in vivo at 30 mg/kg/day (obese female Zucker rats; 168 h, week 1, read-out: TC) | change in vivo at 30 mg/kg/day (obese female Zucker rats; 168 h, week 1, read-out: TG) | change in vivo at 30 mg/kg/day (obese female Zucker rats; [4]) | change in vivo at 30 mg/kg/day (obese female Zucker rats; 336 h, week 2, read-out: HDL-C) | change in vivo at 30 mg/kg/day (obese female Zucker rats; [5]) | further results
1 | CC(CO)(CCCOCCCC(C)(CO)c1ccccc1)c1ccccc1 (stereo not drawn) [Compound 110, 5-(5-Hydroxy-4-methyl-4-phenylpentyloxy)-2-methyl-2-phenylpentan-1-ol] | 12% | 7% | -2% | -32% | -4% | -27% | 10% | 5% | -6% | -26% | -4% | -18% | 143 µM |  |  |  |  |  |  |  | 
2 | CC(CO)(CCCCOCCCCC(C)(CO)c1ccccc1)c1ccccc1 (stereo not drawn) [Compound 111, 6-(6-Hydroxy-5-methyl-5-phenylhexyloxy)-2-methyl-2-phenylhexan-1-ol] |  |  |  |  |  |  |  |  |  |  |  |  | 106 µM | -4% | -37% | -17% | -14% | -18% | -28% | -36% | change in vivo at 30 mg/kg/day (obese female Zucker rats; [3]): -33%; change in vivo at 30 mg/kg/day (obese female Zucker rats; [6]): -1%; change in vivo at 30 mg/kg/day (obese female Zucker rats; 336 h, week 2, read-out: TC): -20%; change in vivo at 30 mg/kg/day (obese female Zucker rats; 336 h, week 2, read-out: TG): -7%
3 | CC(C)(CCCCOCCCCC(C)(C)COC1CCCCO1)COC1CCCCO1 (stereo not drawn) [Compound 122, 2-{6-[5,5-Dimethyl-6-(tetrahydropyran-2-yloxy)-hexyloxy]-2,2-dimethylhexyloxy}-tetrahydropyran] | -7% | 43% | -18% | 46% | 42% | -1% | 9% | 79% | -20% | 92% | 79% | 22% | 20 µM |  |  |  |  |  |  |  | 
4 | CC(C)(CO)CCCCOCCCC(C)(C)CO [Compound 126, 6-(5-Hydroxy-4,4-dimethylpentyloxy)-2,2-dimethylhexan-1-ol] | 68% | 630% | 240% | -28% | 119% | -63% | 9% | 786% | 145% | -17% | 161% | -58% | 17 µM |  |  |  |  |  |  |  | 
5 | CC(CO)(CCCCOCCCC(C)(CO)c1ccccc1)c1ccccc1 (stereo not drawn) [Compound 127, 6-(5-Hydroxy-4-methyl-4-phenylpentyloxy)-2-methyl-2-phenylhexan-1-ol] |  |  |  |  |  |  |  |  |  |  |  |  |  | -2% | 3% | 3% | 0% | -3% | -20% | 0% | change in vivo at 30 mg/kg/day (obese female Zucker rats; [1]): 5%; change in vivo at 30 mg/kg/day (obese female Zucker rats; [6]): 45%; change in vivo at 30 mg/kg/day (obese female Zucker rats; 336 h, week 2, read-out: TC): 2%; change in vivo at 30 mg/kg/day (obese female Zucker rats; 336 h, week 2, read-out: TG): 21%
6 | CC(C)(CO)CCCCOCCCCC(C)(C)CO [Compound 128, 6-(6-Hydroxy-5,5-dimethylhexyloxy)-2,2dimethylhexan-1-ol] |  |  |  |  |  |  |  |  |  |  |  |  | 10 µM | 174% | 48% | 131% | -52% | 44% | 349% | 48% | change in vivo at 30 mg/kg/day (obese female Zucker rats; [1]): 2%; change in vivo at 30 mg/kg/day (obese female Zucker rats; [3]): -14%; change in vivo at 30 mg/kg/day (obese female Zucker rats; [6]): 59%; change in vivo at 30 mg/kg/day (obese female Zucker rats; 336 h, week 2, read-out: TC): 224%; change in vivo at 30 mg/kg/day (obese female Zucker rats; 336 h, week 2, read-out: TG): -39%
7 | CC(C)(CO)CCCCOCCCCC(C)(CO)c1ccccc1 (stereo not drawn) [Compound 129, 6-(6-Hydroxy-5-methyl-5-phenylhexyloxy)-2,2-dimethyl-hexan-1-ol] | 14% | 26% | 2% | -55% | -6% | -61% | 4% | 52% | 6% | -13% | 26% | -45% | 4.7 µM |  |  |  |  |  |  |  | 
8 | CC(C)(CO)CCCCCOCCCCC(C)(C)CO [Compound 130, 7-(6-Hydroxy-5,5-dimethylhexyloxy)-2,2-dimethylheptan-1-ol] |  |  |  |  |  |  |  |  |  |  |  |  | 8.4 µM | 71% | 25% | 41% | -66% | 6% | 105% | 13% | change in vivo at 30 mg/kg/day (obese female Zucker rats; [1]): 6%; change in vivo at 30 mg/kg/day (obese female Zucker rats; [3]): -26%; change in vivo at 30 mg/kg/day (obese female Zucker rats; [6]): 17%; change in vivo at 30 mg/kg/day (obese female Zucker rats; 336 h, week 2, read-out: TC): 77%; change in vivo at 30 mg/kg/day (obese female Zucker rats; 336 h, week 2, read-out: TG): -47%
9 | CC(C)(CO)CCCCCOCCCCCC(C)(C)CO [Compound 131, 7-(7-Hydroxy-6,6-dimethylheptyloxy)-2,2-dimethylheptan-1-ol] | -6% | 292% | 40% | -79% | 85% | -91% | -5% | 289% | -1% | -57% | 106% | -88% | 3.8 µM |  |  |  |  |  |  |  | 
10 | CC(C)(CO)CCCOCCOCCCC(C)(C)CO [Compound 149, 5-[2-(5-Hydroxy-4,4-dimethylpentyloxy)-ethoxy]-2,2-dimethylpentan-1-ol] |  |  |  |  |  |  |  |  |  |  |  |  |  | 37% | -40% | -7% | -37% | -27% | 17% | -26% | change in vivo at 30 mg/kg/day (obese female Zucker rats; [1]): -20%; change in vivo at 30 mg/kg/day (obese female Zucker rats; [3]): -48%; change in vivo at 30 mg/kg/day (obese female Zucker rats; [6]): -27%; change in vivo at 30 mg/kg/day (obese female Zucker rats; 336 h, week 2, read-out: TC): -7%; change in vivo at 30 mg/kg/day (obese female Zucker rats; 336 h, week 2, read-out: TG): -30%
